Experimental findings from patent US20150344457A1, “METHODS OF INHIBITING PRMT5” (EPIZYME, INC., priority 2012, published 2015) are described below.

The subject of this assay is Z-138 cells. As to the kind of experiment: Z-138 Methylation Assay (In Cell Western for symmetric di-methyl arginine and DNA content). Type of assay: cell-based. The following applies: Homo sapiens, Table A-2, 96 hours, symmetric di-methyl arginine, read-out: ICW EC50. In short, it runs like this: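 Symmetric di-methyl arginine signal (800 nm) ratioed to DNA content (700 nm) by In Cell Western after four days of compound treatment of Z-138 suspension cells seeded at 50,000 cells/mL. Percent inhibition set between DMSO and 3 μM reference wells; IC50 curves from triplicates.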
The EC50 is the concentration needed to bring the measured effect to its halfway point. Take `O=C(COc1ccccc1S(=O)(=O)N1CCC(O)C1)NCC(O)CN1CCc2ccccc2C1` (stereo not drawn) [Compound A111]: the EC50 is less than 100 nM.
With `CS(=O)(=O)Nc1ccc(OCC(=O)NCC(O)CN2CCc3ccccc3C2)cc1` (stereo not drawn) [Compound A42] the figure was 101 to 1000 nM; with `NS(=O)(=O)c1ccccc1OCC(=O)NCC(O)CN1CCc2ccccc2C1` (stereo not drawn) [Compound A65], 101 to 1000 nM; with `O=C(COc1cccc2cccnc12)NC[C@H](O)CN1CCc2ccccc2C1` [Compound A44], 101 to 1000 nM.
With `N#Cc1ccc(OCC(=O)NCC(O)CN2CCc3ccccc3C2)cc1` (stereo not drawn) [Compound A11] the figure was 101 to 1000 nM; with `CC(=O)Nc1cccc(OCC(=O)NCC(O)CN2CCc3ccccc3C2)c1` (stereo not drawn) [Compound A31], 101 to 1000 nM.
For `CN(C)C(=O)c1ccccc1OCC(=O)NCC(O)CN1CCc2ccccc2C1` (stereo not drawn) [Compound A113], the EC50 is 101 to 1000 nM.
With `Cn1cnc2cc(OCC(=O)NCC(O)CN3CCc4ccccc4C3)ccc21` (stereo not drawn) [Compound A46] the figure was 101 to 1000 nM; with `O=C(COc1cccc(F)c1)NCC(O)CN1CCc2ccccc2C1` (stereo not drawn) [Compound A7], 101 to 1000 nM.
With `O=C(COc1ccccc1-c1cc[nH]n1)NC[C@H](O)CN1CCc2ccccc2C1` [Compound A68] the figure was 101 to 1000 nM; with `O=C(COc1cccc2ncc(=O)[nH]c12)NCC(O)CN1CCc2ccccc2C1` (stereo not drawn) [Compound A129], 1000 to 10000 nM; with `CC(Oc1ccccc1S(C)(=O)=O)C(=O)NCC(O)CN1CCc2ccccc2C1` (stereo not drawn) [Compound A114], 1000 to 10000 nM.
Consider `CS(=O)(=O)Nc1cccc(OCC(=O)NCC(O)CN2CCc3ccccc3C2)c1` (stereo not drawn) [Compound A28], for which the EC50 lay in the range of 101 to 1000 nM.
With `Cc1ccc(OCC(=O)NCC(O)CN2CCc3ccccc3C2)cc1` (stereo not drawn) [Compound A9] the figure was 10000 to 50000 nM; with `CN1CCC(n2cnc3ccc(OCC(=O)NCC(O)CN4CCc5ccccc5C4)cc32)CC1` (stereo not drawn) [Compound A71], 101 to 1000 nM.
With `NC(=O)c1cccc(OCC(=O)NCC(O)CN2CCc3ccccc3C2)c1` (stereo not drawn) [Compound A34] the figure was 101 to 1000 nM.
For the compound `O=C(COc1ccccc1S(=O)(=O)N1CCCC1)NCC(O)CN1CCc2ccccc2C1` (stereo not drawn) [Compound A110], the EC50 was less than 100 nM.
`CN(C)c1ccc(OCC(=O)NCC(O)CN2CCc3ccccc3C2)cc1` (stereo not drawn) [Compound A35]: the EC50 lay in the range of 101 to 1000 nM.
